# Results: patent US12390435B2, “Electrophiles and electrophile pro-drugs as RAD51 inhibitors” (University of Pittsburgh—Of the Commonwealth System of …, priority 2018, dated 2025)
# Legend:
# [1] = system: MDA-MB-231 xenograft tumor; assay: MDA-MB-231 xenograft tumor growth, 7.5 mg/kg/day oral gavage; format: in vivo, mice
# Procedure: MDA-MB-231 cells were injected into the fourth inguinal mammary fat pad of 6-week-old female athymic nude mice.
# [2] = system: RAD51 foci in MDA-MB-231 cells; assay: RAD51 foci and γH2AX immunofluorescence after 5 Gy IR; format: cell-based
# Procedure: To analyze RAD51 foci formation, 10,000 cells were plated to CultureWell 16-well chambered cover glass (MIDSCI) coated with poly-L-lysine (Sigma) and incubated overnight in 5% FBS media. […] Cells were fixed with 10% formalin for 20 min at 4° C. and immunostained with RAD51 (Santa Cruz) or γH2AX (EMD Biosciences) antibodies. Z-stack images were acquired using a Nikon AIR confocal microscope with 60× oil objective and acquisition performed using NIS elements software. Quantification of z-stacks and foci were completed using ImageJ software.
# Data represent the mean±SEM from 3 independent experiments unless otherwise noted. A p value<0.05 was considered statistically significant. Non-linear curves were generated in GraphPad Prism 7.0 (GraphPad Software, La Jolla, CA, USA) for statistical analysis. EC50 values and standard error were calculated from three independent experiments utilizing a non-linear dose response variable slope model. Significance was tested by one-way ANOVA for multiple groups with Tukey posttest or by t-test when groups were less than three. RAD51 foci number was analyzed with ImageJ. Nuclear boundaries were individually identified in more than 50 cells per treatment group in three independent experiments.
# [3] = intravenous and oral formulations; cited from earlier work
# [4] = biological target: T1, RAD51 and ABL core (Homo sapiens, UniProt Q06609); assay: In vitro RAD51-ABL binding assay; format: biochemical; settings: purified proteins, 0, 100 or 500 nM, 1 h
# T1 construct: His; made in house; host or cells: E. coli BL21(DE3)pLysS
# Procedure: FIGS. 3A-3I. […] FIG. 3A. […] FIG. 3B. […] FIG. 3C. […] Three independent experiments were quantified and analyzed by one-way ANOVA * p<0.05. FIG. 3D. […] FIG. 3E. […] FIG. 3F. […] Purified RAD51 and ABL core proteins were incubated with OA-NO2 at 0, 100 or 500 nM for 1 h and ABL was precipitated. The amount of bound RAD51 was detected by immunoblot. FIG. 3G. […] RAD51 interactions with ABL and phosphorylated RAD51 Y315 were probed by IP and immunoblot. FIG. 3H. […] Cells were incubated with biotinylated NO2-OA and then lysates were precipitated with streptavidin coated agarose and detected by immunoblot. FIG. 3I.
# Recombinant His-tagged RAD51 in the pET21a vector were transformed into E. coli BL21(DE3)pLysS cells (EMD Millipore) and purified.
# T1 sequence (Q06609 whole entry): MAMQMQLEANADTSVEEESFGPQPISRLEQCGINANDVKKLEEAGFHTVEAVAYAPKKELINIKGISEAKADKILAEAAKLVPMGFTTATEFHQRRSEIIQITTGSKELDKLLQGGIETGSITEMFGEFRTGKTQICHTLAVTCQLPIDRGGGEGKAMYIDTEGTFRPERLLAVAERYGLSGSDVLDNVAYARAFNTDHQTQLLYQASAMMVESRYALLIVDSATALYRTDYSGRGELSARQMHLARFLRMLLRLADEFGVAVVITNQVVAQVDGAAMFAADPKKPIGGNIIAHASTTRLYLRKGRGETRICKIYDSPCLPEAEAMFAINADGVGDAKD
smiles,measurement,setting,value
"CCCCCCCCC(=CCCCCCCCC(=O)O)[N+](=O)[O-] [NO2-OA, 10-nitro-octadec-9-enoic acid]",xenograft tumor growth,"[1]; 7.5 mg/kg/day oral gavage, 27 days post-treatment, versus vehicle and NO2-SA",significantly reduced tumor growth
same,body weight during treatment,"[1]; 7.5 mg/kg/day, 4 weeks",no weight loss
same,overt toxicity,"[1]; 7.5 mg/kg/day, 4 weeks",no overt toxic effects
same,tumor NO2-OA levels,[1]; oral administration,increased murine tumor NO2-OA levels
same,RAD51 foci formation,"[2]; 5 μM, 6 h",inhibited RAD51 foci formation
same,nuclear γH2AX localization,[2]; versus vehicle,significantly increased nuclear γH2AX localization
same,clinical safety,[3],safe
same,RAD51-ABL core complex formation,[4],abolished
